Reference: article PMC7044277 (Nature Communications, 2020)
Where “and” joins values, the source holds several entries; their conditions need not be identical. Identical values can stand only once. Like-named read-outs stand apart in the source and are kept apart here.

How the values were obtained:
DRD3 wild-type = DRD3 wild-type (Homo sapiens, UniProt P35462); assay: Radioligand competition binding, [3H]-N-methylspiperone
DRD2 (D2 long receptor) [1] = target: T1, DRD2 (D2 long receptor) (Homo sapiens, UniProt P14416); assay: Gαi/o-mediated cAMP inhibition (GloSensor split-luciferase cAMP reporter), HEK293T; type: cell-based; conditions: for response, Fig_S11d dose-response source data: replicate values; for Emax: HEK-293T, read-out: Emax relative to quinpirole response;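 as to all read-outs here: compounds applied 15 min at room temperature, then luciferin plus 400 nM isoproterenol to raise cAMP through endogenous β2-adrenergic receptors, luminescence read 15 min later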
DRD3 F1063.28A [2] = target: T2, DRD3 F1063.28A (Homo sapiens, UniProt P35462, F106A); assay: biochemical; type: binding
DRD3 F1063.28A [3] = target: T2, DRD3 F1063.28A; assay: cell-based; type: cell-based
DRD2 F1103.28A [4] = target: T3, DRD2 F1103.28A (Homo sapiens, UniProt P14416, F110A); type: binding; parameters: expressed in transfected cells; host or cells: HEK293T (ATCC CRL-11268)
DRD4 (D4.4 variant) [5] = target: T4, DRD4 (D4.4 variant) (Homo sapiens, UniProt P21917); assay: Gαi/o-mediated cAMP inhibition (GloSensor); type: cell-based
T4 sequence (P21917 1-419): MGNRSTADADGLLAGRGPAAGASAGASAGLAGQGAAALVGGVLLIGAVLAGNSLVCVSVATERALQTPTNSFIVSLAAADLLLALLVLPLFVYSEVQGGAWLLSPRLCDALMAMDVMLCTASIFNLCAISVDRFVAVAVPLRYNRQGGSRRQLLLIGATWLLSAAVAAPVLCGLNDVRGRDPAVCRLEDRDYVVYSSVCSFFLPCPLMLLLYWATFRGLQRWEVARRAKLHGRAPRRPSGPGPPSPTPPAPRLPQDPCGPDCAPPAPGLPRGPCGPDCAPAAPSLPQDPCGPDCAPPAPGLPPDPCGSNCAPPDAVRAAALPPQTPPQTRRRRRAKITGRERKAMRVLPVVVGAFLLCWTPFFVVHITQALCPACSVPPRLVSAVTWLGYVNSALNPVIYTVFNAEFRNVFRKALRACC

DRD4 (D4.4 variant) [6] = target: T4, DRD4 (D4.4 variant); assay: β-arrestin2 recruitment (Tango); type: cell-based
DRD2 F1103.28A [7] = target: T3, DRD2 F1103.28A; assay: Gαi/o-mediated cAMP inhibition (GloSensor), mutant; type: cell-based; parameters: expressed in transfected cells; host or cells: HEK293T (ATCC CRL-11268)
DRD2 (D2 long receptor) [8] = target: T1, DRD2 (D2 long receptor); assay: β-arrestin2 recruitment (Tango), HTLA cells; type: cell-based; conditions: for response, Fig_S11e dose-response source data: replicate values; for Emax: HTLA, read-out: Emax relative to quinpirole response
DRD2 F1103.28A [9] = target: T3, DRD2 F1103.28A; assay: β-arrestin2 recruitment (Tango), mutant; type: cell-based; parameters: expressed in transfected cells; host or cells: HEK293T (ATCC CRL-11268)
DRD2 F1103.28L [10] = target: T5, DRD2 F1103.28L (Homo sapiens, UniProt P14416, F110L); assay: β-arrestin2 recruitment (Tango), mutant; type: cell-based
T5 construct: expressed in transfected cells; host or cells: HEK293T (ATCC CRL-11268)

[11] = target: T6, DRD4 (D4.4 variant) wild-type (Homo sapiens, UniProt P21917); assay: Radioligand competition binding, [3H]-N-methylspiperone
T6 sequence (P21917 1-419): T4 sequence (P21917 1-419)

DRD3 [12] = target: T7, DRD3 (Homo sapiens, UniProt P35462); assay: β-arrestin2 recruitment (Tango); type: cell-based; conditions: for Emax: read-out: Emax relative to quinpirole response
DRD2 F1103.28L [13] = target: T5, DRD2 F1103.28L; assay: Gαi/o-mediated cAMP inhibition (GloSensor), mutant; type: cell-based
[14] = target: DRD2 (D2 long receptor) wild-type (Homo sapiens, UniProt P14416); assay: Radioligand competition binding, [3H]-N-methylspiperone, HEK293T membranes
DRD2 S1975.46G = target: T8, DRD2 S1975.46G (Homo sapiens, UniProt P14416, S197G); assay: Gαi/o-mediated cAMP inhibition (GloSensor), mutant; type: cell-based; conditions: DRD2 Ser197^5.46Gly; G-protein assay
T8 construct: expressed in transfected cells; host or cells: HEK293T (ATCC CRL-11268)

DRD3 [15] = target: T7, DRD3; assay: Gαi/o-mediated cAMP inhibition (GloSensor); type: cell-based
[16] = read-out: Emax relative to quinpirole response

T5 sequence (P14416 whole entry F110L): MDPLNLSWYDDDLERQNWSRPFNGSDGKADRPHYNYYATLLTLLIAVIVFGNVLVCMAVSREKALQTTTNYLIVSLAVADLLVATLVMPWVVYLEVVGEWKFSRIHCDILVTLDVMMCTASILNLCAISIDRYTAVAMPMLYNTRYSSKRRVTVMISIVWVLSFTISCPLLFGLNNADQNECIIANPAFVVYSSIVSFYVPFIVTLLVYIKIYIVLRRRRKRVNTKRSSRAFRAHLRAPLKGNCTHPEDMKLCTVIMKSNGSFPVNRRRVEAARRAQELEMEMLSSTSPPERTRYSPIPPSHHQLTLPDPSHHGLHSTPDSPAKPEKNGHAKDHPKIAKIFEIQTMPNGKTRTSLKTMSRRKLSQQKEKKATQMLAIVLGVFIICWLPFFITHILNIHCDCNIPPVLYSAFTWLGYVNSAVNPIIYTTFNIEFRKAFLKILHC
T3 sequence (P14416 whole entry F110A): as the sequence (P14416 whole entry F110L) above, with L110A counted along it
T7 sequence (P35462 whole entry): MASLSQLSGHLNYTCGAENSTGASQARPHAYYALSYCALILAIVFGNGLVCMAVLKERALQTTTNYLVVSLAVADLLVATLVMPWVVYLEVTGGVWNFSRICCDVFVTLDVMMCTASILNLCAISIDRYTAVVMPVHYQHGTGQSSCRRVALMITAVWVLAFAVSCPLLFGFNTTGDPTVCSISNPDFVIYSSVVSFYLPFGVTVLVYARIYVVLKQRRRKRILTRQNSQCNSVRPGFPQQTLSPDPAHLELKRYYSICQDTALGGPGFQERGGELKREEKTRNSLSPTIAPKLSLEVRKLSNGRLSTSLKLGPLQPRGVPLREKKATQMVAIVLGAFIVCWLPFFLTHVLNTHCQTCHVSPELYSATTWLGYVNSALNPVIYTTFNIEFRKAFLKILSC
T2 sequence (P35462 whole entry F106A): as the sequence (P35462 whole entry) above, with F106A counted along it
T1 sequence (P14416 whole entry): as the sequence (P14416 whole entry F110L) above, with L110F counted along it
Sequence of DRD3 wild-type (P35462 whole entry): as the sequence (P35462 whole entry) above
Sequence of DRD2 (D2 long receptor) wild-type (P14416 whole entry): as the sequence (P14416 whole entry F110L) above, with L110F counted along it
T8 sequence (P14416 whole entry S197G): as the sequence (P14416 whole entry F110L) above, with L110F, S197G counted along it

Structure (SMILES): CCOc1cccc2cc(C(C)NCC3(O)CCCCCCC3)oc12 (stereo not drawn) [O4LE8]
- Ki (DRD3 wild-type; DRD3 wild-type, read-out: pKi ± SEM (converted)): 0.126 µM
- EC50 (DRD2 (D2 long receptor) [1]; DRD2, agonist, Gαi/o-mediated cAMP inhibition, read-out: EC50 ± SEM): 0.0251 ± 0.00415 µM
- response, Fig_S11d dose-response source data (DRD2 (D2 long receptor) [1]; Log[Drug] -6.52): 81.714
- response, Fig_S11d dose-response source data (DRD2 (D2 long receptor) [1]; Log[Drug] -7): 60.3486 and 66.6804 and 72.7008 and 60.4684 and 68.6286 and 77.0139 and 66.1563 and 80.9789 and 74.7009
- response, Fig_S11d dose-response source data (DRD2 (D2 long receptor) [1]; Log[Drug] -7.52): 64.1546 and 42.5815 and 54.9164 and 48.6839 and 50.89 and 54.6944 and 53.231 and 58.2356 and 61.6484
- response, Fig_S11d dose-response source data (DRD2 (D2 long receptor) [1]; Log[Drug] -8): 30.3505 and 38.7582 and 38.4468 and 27.6925 and 25.4414 and 37.7886 and 33.6203 and 36.6384 and 38.4211
- response, Fig_S11d dose-response source data (DRD2 (D2 long receptor) [1]; Log[Drug] -8.52): 18.8806 and 26.4753 and 29.6239 and 29.8085 and 24.7211 and 36.5506 and 30.7552 and 20.988 and 25.8907
- response, Fig_S11d dose-response source data (DRD2 (D2 long receptor) [1]; Log[Drug] -9): 10.6977 and 6.477 and 22.1503 and -4.7682 and 5.553 and 28.1427 and 15.0029 and 22.6689 and 22.3633
- response, Fig_S11d dose-response source data (DRD2 (D2 long receptor) [1]; Log[Drug] -9.52): 13.483 and 14.7978 and 22.2541 and 0.3305 and -1.0989 and 21.5583 and 10.5969 and 17.6134 and 23.573
- response, Fig_S11d dose-response source data (DRD2 (D2 long receptor) [1]; Log[Drug] -10): 5.075 and 27.3403 and 11.8049 and -5.4661 and -6.0063 and 15.8293 and -4.1493 and 12.6598 and 11.3991
- response, Fig_S11d dose-response source data (DRD2 (D2 long receptor) [1]; Log[Drug] -10.52): 26.6829 and 14.6767 and 28.6205 and 3.955 and -0.615 and 13.1617 and 5.592 and 6.484 and 18.0973
- response, Fig_S11d dose-response source data (DRD2 (D2 long receptor) [1]; Log[Drug] -11): 14.0885 and 21.7351 and 14.8497 and 2.548 and 0.2179 and 18.1479 and 4.5736 and 10.5841 and 33.4421
- response, Fig_S11d dose-response source data (DRD2 (D2 long receptor) [1]; Log[Drug] -11.52): 14.3134 and 21.1815 and -2.3983 and 1.163 and 10.5955 and 20.3089 and -4.0602 and -1.4624 and 2.396
- response, Fig_S11d dose-response source data (DRD2 (D2 long receptor) [1]; Log[Drug] -12): -12.3977 and -4.8203 and -3.3671 and -5.6011 and 0.2067 and 18.6656 and 6.267 and -13.7 and 1.135
- Emax (DRD2 (D2 long receptor) [1]; DRD2, cAMP inhibition): 93.5%
- Ki (DRD3 F1063.28A [2]): 0.209 µM
- affinity decreased, mutant vs wild type (DRD3 F1063.28A [2]; DRD3 Phe106^3.28Ala vs wild-type DRD3): 1.62 fold
- EC50 (DRD3 F1063.28A [3]): > 10 µM
- Ki (DRD2 F1103.28A [4]; DRD2 F1103.28A, read-out: pKi ± SEM (converted)): 0.174 µM
- affinity increase (binding enhanced), mutant vs wild type (DRD2 F1103.28A [4]; DRD2 Phe110^3.28Ala vs wild-type DRD2): 8.47 fold
- EC50 (DRD4 (D4.4 variant) [5]; DRD4, agonist, cAMP inhibition, read-out: EC50 ± SEM): > 10 µM
- EC50 (DRD4 (D4.4 variant) [6]; DRD4, Tango, read-out: EC50 ± SEM): 7.72 ± 3.42 µM
- Emax (DRD4 (D4.4 variant) [6]; read-out: Emax relative to quinpirole response, DRD4, Tango): 22.3%
- EC50 (DRD2 F1103.28A [7]): > 10 µM
- EC50 (DRD2 (D2 long receptor) [8]; DRD2, β-arrestin2 recruitment (Tango), read-out: EC50 ± SEM): 0.958 ± 0.554 µM
- response, Fig_S11e dose-response source data (DRD2 (D2 long receptor) [8]; Log[Drug] -6.52): 25.1709
- response, Fig_S11e dose-response source data (DRD2 (D2 long receptor) [8]; Log[Drug] -7): 14.6742 and 15.2038 and 14.2094 and 15.768 and 13.8247 and 10.963 and 9.8559 and 9.763 and 11.4407
- response, Fig_S11e dose-response source data (DRD2 (D2 long receptor) [8]; Log[Drug] -7.52): 7.064 and 7.803 and 7.822 and 6.018 and 6.959 and 8.6294 and 5.868 and 6.2292 and 7.2281
- response, Fig_S11e dose-response source data (DRD2 (D2 long receptor) [8]; Log[Drug] -8): 5.7468 and 5.978 and 6.62 and 5.455 and 5.722 and 6.021 and 5.454 and 5.678 and 6.204
- response, Fig_S11e dose-response source data (DRD2 (D2 long receptor) [8]; Log[Drug] -8.52): 5.4648 and 5.687 and 6.826 and 4.883 and 5.2931 and 6.0726 and 5.125 and 5.623 and 6.271
- response, Fig_S11e dose-response source data (DRD2 (D2 long receptor) [8]; Log[Drug] -9): 5.367 and 5.481 and 6.509 and 5.152 and 5.102 and 5.412 and 5.069 and 5.184 and 5.586
- response, Fig_S11e dose-response source data (DRD2 (D2 long receptor) [8]; Log[Drug] -9.52): 5.23 and 5.307 and 5.645 and 4.9908 and 4.966 and 5.083 and 5.0713 and 4.923 and 5.288
- response, Fig_S11e dose-response source data (DRD2 (D2 long receptor) [8]; Log[Drug] -10): 5.15 and 5.211 and 5.175 and 4.9 and 4.98 and 4.8838 and 4.832 and 4.97 and 4.906
- response, Fig_S11e dose-response source data (DRD2 (D2 long receptor) [8]; Log[Drug] -10.52): 5.0534 and 4.953 and 5.08 and 4.774 (2×) and 4.9 and 4.962 and 4.816 and 4.832
- response, Fig_S11e dose-response source data (DRD2 (D2 long receptor) [8]; Log[Drug] -11): 5.0347 and 4.933 and 5.013 and 4.706 and 4.819 and 4.763 and 4.774 (2×) and 4.732
- response, Fig_S11e dose-response source data (DRD2 (D2 long receptor) [8]; Log[Drug] -11.52): 4.924 and 5.294 and 5.1115 and 4.785 and 5.303 and 4.761 and 4.741 and 4.765 and 4.928
- response, Fig_S11e dose-response source data (DRD2 (D2 long receptor) [8]; Log[Drug] -12): 4.887 and 4.896 and 4.876 and 4.741 and 5.073 and 4.844 and 4.843 and 5.092 and 4.723
- Emax (DRD2 (D2 long receptor) [8]; DRD2, Tango): 54%
- EC50 (DRD2 F1103.28A [9]): > 10 µM
- EC50 (DRD2 F1103.28L [10]): 0.0832 µM
- Emax (DRD2 F1103.28L [10]; [16]): 12.9%
- Ki ([11]; DRD4, [3H]-methylspiperone (0.8-1.0 nM), read-out: Ki): 3.47 µM
- EC50 (DRD3 [12]; DRD3, Tango, read-out: EC50 ± SEM): 2.57 ± 0.331 µM
- Emax (DRD3 [12]; DRD3, Tango): 12.6%
- EC50 (DRD2 F1103.28L [13]; DRD2 F1103.28L (b138 head prints DRD2 F1063.28L)): 0.00514 ± 0.00134 µM
- Emax (DRD2 F1103.28L [13]; read-out: Emax relative to quinpirole response, DRD2 F1103.28L): 79.4%
- Ki ([14]; DRD2, [3H]-methylspiperone (0.8-1.0 nM), read-out: Ki): 1.44 µM

Structure (SMILES): CC(CCc1ccccc1[N+](=O)[O-])NCC1(O)CCCCC1 (stereo not drawn) [O7LE6]
- Ki (DRD3 wild-type): 0.174 µM
- agonism after serine to glycine substitution (DRD2 S1975.46G): substantially diminished
- EC50 (DRD2 (D2 long receptor) [1]): 0.00113 µM
- Emax (DRD2 (D2 long receptor) [1]): 100%
- EC50 (DRD3 [15]): 0.00196 µM
- Emax (DRD3 [15]; [16]): 82.7%
- EC50 (DRD4 (D4.4 variant) [5]): > 10 µM
- G protein agonist activity (DRD4 (D4.4 variant) [5]; DRD4, cAMP inhibition): no DRD4 activity
- EC50 (DRD4 (D4.4 variant) [6]): > 10 µM
- β-arrestin2 recruitment agonist activity (DRD4 (D4.4 variant) [6]; DRD4, Tango): no DRD4 activity
- EC50 (DRD2 (D2 long receptor) [8]): 0.00695 µM
- Emax (DRD2 (D2 long receptor) [8]): 85.3%
- Ki ([11]; Ki): > 10 µM
- EC50 (DRD3 [12]): 0.117 µM
- Emax (DRD3 [12]): 88.5%
- Ki ([14]; Ki): 1.41 µM
